Measurements published in PubChem BioAssay (NCI).
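Growth conditions: 96-well plates. Treatment: test compound, 48 hours, 5 concentrations. Analysis: linear interpolation between bracketing concentrations; unreached endpoints set to highest concentration. GI50: concentration for 50% inhibition of growth. The concentration for full growth arrest is given as TGI.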

Assays:
Experiment in all cases: inhibition of tumour cell growth, NCI panel, 48 h
NCI-H522 lung = test system: NCI-H522 lung
SK-OV-3 ovarian = test system: SK-OV-3 ovarian
A549 NSCLC = test system: A549 NSCLC
DU-145 prostate = test system: DU-145 prostate
COLO 205 colon = test system: COLO 205 colon
SF-295 CNS = test system: SF-295 CNS
NCI-H226 lung = test system: NCI-H226 lung
OVCAR-8 ovarian = test system: OVCAR-8 ovarian
K-562 leukemia = test system: K-562 leukemia
NCI-H460 lung = test system: NCI-H460 lung
SN12C renal = test system: SN12C renal
HCC-2998 colon = test system: HCC-2998 colon
RXF 393 renal = test system: RXF 393 renal
PC-3 prostate = test system: PC-3 prostate
KM12 colon = test system: KM12 colon
SW-620 colon = test system: SW-620 colon
M14 melanoma = test system: M14 melanoma
MCF7 breast = test system: MCF7 breast
OVCAR-3 ovarian = test system: OVCAR-3 ovarian
RPMI-8226 leukemia = test system: RPMI-8226 leukemia
NCI/ADR-RES ovarian = test system: NCI/ADR-RES ovarian
A498 renal = test system: A498 renal
SNB-75 CNS = test system: SNB-75 CNS
U251 CNS = test system: U251 CNS
IGROV1 ovarian = test system: IGROV1 ovarian
HL-60(TB) leukemia = test system: HL-60(TB) leukemia
NCI-H23 lung = test system: NCI-H23 lung
HCT-15 colon = test system: HCT-15 colon
SK-MEL-2 melanoma = test system: SK-MEL-2 melanoma
CCRF-CEM leukemia = test system: CCRF-CEM leukemia
SK-MEL-5 melanoma = test system: SK-MEL-5 melanoma
SF-539 CNS = test system: SF-539 CNS
UACC-257 melanoma = test system: UACC-257 melanoma
LOX IMVI melanoma = test system: LOX IMVI melanoma
OVCAR-4 ovarian = test system: OVCAR-4 ovarian
EKVX NSCLC = test system: EKVX NSCLC
HOP-92 NSCLC = test system: HOP-92 NSCLC
SNB-19 CNS = test system: SNB-19 CNS
MOLT-4 leukemia = test system: MOLT-4 leukemia
MDA-MB-231 breast = test system: MDA-MB-231 breast
MDA-MB-435 = test system: MDA-MB-435
TK-10 renal = test system: TK-10 renal
SR leukemia = test system: SR leukemia
HT29 colon = test system: HT29 colon
CAKI-1 renal = test system: CAKI-1 renal
T-47D breast = test system: T-47D breast
HOP-62 NSCLC = test system: HOP-62 NSCLC
SK-MEL-28 melanoma = test system: SK-MEL-28 melanoma
UACC-62 melanoma = test system: UACC-62 melanoma
UO-31 renal = test system: UO-31 renal
MALME-3M melanoma = test system: MALME-3M melanoma
BT-549 breast = test system: BT-549 breast
SF-268 CNS = test system: SF-268 CNS
HS 578T breast = test system: HS 578T breast
OVCAR-5 ovarian = test system: OVCAR-5 ovarian
ACHN renal = test system: ACHN renal
HCT-116 colon = test system: HCT-116 colon
786-0 renal = test system: 786-0 renal

ClC1=C(Cl)C(Cl)=C(Cl)C1=Cc1ccccc1
GI50 (NCI-H522 lung): 189 nM | TGI (NCI-H522 lung): 459 nM | GI50 (SK-OV-3 ovarian): 2000 nM | TGI (SK-OV-3 ovarian): 4.66 µM | GI50 (A549 NSCLC): 1630 nM | TGI (A549 NSCLC): 4.32 µM | GI50 (DU-145 prostate): 708 nM | TGI (DU-145 prostate): 2830 nM | GI50 (COLO 205 colon): 937 nM | TGI (COLO 205 colon): 2650 nM | GI50 (SF-295 CNS): 1330 nM | TGI (SF-295 CNS): 3.74 µM | GI50 (NCI-H226 lung): 1910 nM | TGI (NCI-H226 lung): 3.86 µM | GI50 (OVCAR-8 ovarian): 417 nM | TGI (OVCAR-8 ovarian): 21 µM | GI50 (K-562 leukemia): 277 nM | TGI (K-562 leukemia): 3.5 µM | GI50 (NCI-H460 lung): 1250 nM | TGI (NCI-H460 lung): 4.13 µM | GI50 (SN12C renal): 1950 nM | TGI (SN12C renal): 7.15 µM | GI50 (HCC-2998 colon): 1730 nM | TGI (HCC-2998 colon): 3.14 µM | GI50 (RXF 393 renal): 920 nM | TGI (RXF 393 renal): 2230 nM | GI50 (PC-3 prostate): 622 nM | TGI (PC-3 prostate): 3.7 µM | GI50 (KM12 colon): 1470 nM | TGI (KM12 colon): 3.11 µM | GI50 (SW-620 colon): 293 nM | TGI (SW-620 colon): 1030 nM | GI50 (M14 melanoma): 495 nM | TGI (M14 melanoma): 2110 nM | GI50 (MCF7 breast): 610 nM | TGI (MCF7 breast): 7.02 µM | GI50 (OVCAR-3 ovarian): 463 nM | TGI (OVCAR-3 ovarian): 1620 nM | GI50 (RPMI-8226 leukemia): 311 nM | TGI (RPMI-8226 leukemia): 2300 nM | GI50 (NCI/ADR-RES ovarian): 287 nM | TGI (NCI/ADR-RES ovarian): 1160 nM | GI50 (A498 renal): 1390 nM | TGI (A498 renal): 2780 nM | GI50 (SNB-75 CNS): 1460 nM | TGI (SNB-75 CNS): 3.1 µM | GI50 (U251 CNS): 517 nM | TGI (U251 CNS): 1590 nM | GI50 (IGROV1 ovarian): 916 nM | TGI (IGROV1 ovarian): 2510 nM | GI50 (HL-60(TB) leukemia): 595 nM | TGI (HL-60(TB) leukemia): 2400 nM | GI50 (NCI-H23 lung): 520 nM | TGI (NCI-H23 lung): 2080 nM | GI50 (HCT-15 colon): 1220 nM | TGI (HCT-15 colon): 6.04 µM | GI50 (SK-MEL-2 melanoma): 1380 nM | TGI (SK-MEL-2 melanoma): 2970 nM | GI50 (CCRF-CEM leukemia): 288 nM | TGI (CCRF-CEM leukemia): 3.57 µM | GI50 (SK-MEL-5 melanoma): 1380 nM | TGI (SK-MEL-5 melanoma): 2680 nM | GI50 (SF-539 CNS): 1830 nM | TGI (SF-539 CNS): 4.2 µM | GI50 (UACC-257 melanoma): 731 nM | TGI (UACC-257 melanoma): 2130 nM | GI50 (LOX IMVI melanoma): 198 nM | TGI (LOX IMVI melanoma): 469 nM | GI50 (OVCAR-4 ovarian): 2000 nM | TGI (OVCAR-4 ovarian): 6.92 µM | GI50 (EKVX NSCLC): 1400 nM | TGI (EKVX NSCLC): 3.39 µM | GI50 (HOP-92 NSCLC): 621 nM | TGI (HOP-92 NSCLC): 1610 nM | GI50 (SNB-19 CNS): 1630 nM | TGI (SNB-19 CNS): 3.58 µM | GI50 (MOLT-4 leukemia): 314 nM | TGI (MOLT-4 leukemia): 1560 nM | GI50 (MDA-MB-231 breast): 2430 nM | TGI (MDA-MB-231 breast): 10.4 µM | GI50 (MDA-MB-435): 350 nM | TGI (MDA-MB-435): 1160 nM | GI50 (TK-10 renal): 645 nM | TGI (TK-10 renal): 2020 nM | GI50 (SR leukemia): 334 nM | TGI (SR leukemia): 2570 nM | GI50 (HT29 colon): 457 nM | TGI (HT29 colon): 2270 nM | GI50 (CAKI-1 renal): 342 nM | TGI (CAKI-1 renal): 1130 nM | GI50 (T-47D breast): 1150 nM | TGI (T-47D breast): 3.56 µM | GI50 (HOP-62 NSCLC): 1640 nM | TGI (HOP-62 NSCLC): 3.68 µM | GI50 (SK-MEL-28 melanoma): 1620 nM | TGI (SK-MEL-28 melanoma): 3.27 µM | GI50 (UACC-62 melanoma): 1650 nM | TGI (UACC-62 melanoma): 5.02 µM | GI50 (UO-31 renal): 527 nM | TGI (UO-31 renal): 1980 nM | GI50 (MALME-3M melanoma): 1490 nM | TGI (MALME-3M melanoma): 4.15 µM | GI50 (BT-549 breast): 1680 nM | TGI (BT-549 breast): 3.89 µM | GI50 (SF-268 CNS): 753 nM | TGI (SF-268 CNS): 2430 nM | GI50 (HS 578T breast): 915 nM | TGI (HS 578T breast): 10.1 µM | GI50 (OVCAR-5 ovarian): 1650 nM | TGI (OVCAR-5 ovarian): 3.85 µM | GI50 (ACHN renal): 703 nM | TGI (ACHN renal): 2220 nM | GI50 (HCT-116 colon): 293 nM | TGI (HCT-116 colon): 936 nM | GI50 (786-0 renal): 1320 nM | TGI (786-0 renal): 3.08 µM
